pIC50: −log10 of the molar value. Where two headings read alike, the source gives them in different places.
Target: T1, V600E full-length B-Raf (Homo sapiens, UniProt P15056, V600E)
T1 construct: 1 μM FSBA-MEK and 20 nM V600E full-length B-Raf; made in house; host or cells: sf9 insect cells (baculovirus)
Test: B-Raf IC50 Assay (B-RAF V600E inhibition assay, Example A)
Type: biochemical
Outline: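 Full-length V600E B-Raf (20 nM, from Sf9 baculovirus) was preincubated 15 min with 1 μM FSBA-modified wild-type MEK in pH 7.2 Pipes/KCl/MgCl2 buffer, then started with 4 μM ATP plus [γ-33P]ATP. After 60 min at 22 °C, TCA-quenched product was filter-captured and 33P incorporation counted by scintillation.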

[1] = B-Raf V600E assay of Example A: less than 100 nM, read-out: IC50
[2] = B-Raf V600E assay of Example A: less than about 1 μM, read-out: IC50
[3] = incorporation of radio labeled phosphate from [γ-33P]ATP into FSBA-modified wild-type MEK, 4 μM ATP, 20 nM V600E full-length B-Raf, 60-minute incubation, 22° C., read-out: BRAF V600E IC50

T1 sequence (P15056 whole entry V600E): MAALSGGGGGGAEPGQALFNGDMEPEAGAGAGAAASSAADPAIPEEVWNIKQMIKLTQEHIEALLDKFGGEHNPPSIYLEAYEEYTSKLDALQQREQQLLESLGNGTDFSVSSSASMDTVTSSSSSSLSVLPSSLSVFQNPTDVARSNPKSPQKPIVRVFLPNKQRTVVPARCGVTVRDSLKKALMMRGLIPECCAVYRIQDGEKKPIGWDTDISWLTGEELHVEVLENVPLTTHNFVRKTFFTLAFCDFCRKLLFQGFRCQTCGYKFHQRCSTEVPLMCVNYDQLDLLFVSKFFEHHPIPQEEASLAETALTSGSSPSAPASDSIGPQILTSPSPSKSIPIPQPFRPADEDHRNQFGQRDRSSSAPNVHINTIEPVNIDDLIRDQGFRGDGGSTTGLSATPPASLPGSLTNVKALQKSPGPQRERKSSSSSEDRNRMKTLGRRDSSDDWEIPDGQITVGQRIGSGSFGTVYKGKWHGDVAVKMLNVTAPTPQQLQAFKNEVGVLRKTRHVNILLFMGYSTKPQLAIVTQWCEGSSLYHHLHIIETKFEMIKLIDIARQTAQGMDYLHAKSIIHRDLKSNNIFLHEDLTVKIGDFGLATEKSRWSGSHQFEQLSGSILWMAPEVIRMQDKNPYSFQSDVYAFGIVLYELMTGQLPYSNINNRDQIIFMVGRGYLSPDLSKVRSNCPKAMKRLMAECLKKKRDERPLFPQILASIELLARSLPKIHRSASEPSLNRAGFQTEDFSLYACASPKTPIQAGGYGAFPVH

Row | pIC50 [1] | pIC50 [2] | pIC50 [3] | Structure (SMILES)
1 | > 7.00 | > 6.00 | 7.74 | CCCS(=O)(=O)Nc1ccc(F)c(NC(=O)c2cn(C)c3c(N)ncnc23)c1F [Example 1, 4-amino-5-methyl-pyrrolo[3,2-d]pyrimidine-7-carboxylic acid[2,6-difluoro-3-(propane-1-sulfonylamino)-phenyl]-amide]
2 | > 7.00 | > 6.00 | 8.06 | CCCS(=O)(=O)Nc1ccc(F)c(NC(=O)c2csc3c(NCC)ncnc23)c1Cl [Example 44, 4-Ethylamino-thieno[3,2-d]pyrimidine-7-carboxylic acid [2-chloro-6-fluoro-3-(propane-1-sulfonylamino)-phenyl]-amide]
3 | > 7.00 | > 6.00 | 8.70 | CC(C)CS(=O)(=O)Nc1ccc(Cl)c(NC(=O)c2csc3c(N)ncnc23)c1F [Example 22, 4-Amino-thieno[3,2-d] pyrimidine-7-carboxylic acid [6-chloro-2-fluoro-3-(2-methyl-propane-1-sulfonylamino)-phenyl]-amide]
4 | > 7.00 | > 6.00 | 7.57 | CCCS(=O)(=O)Nc1ccc(F)c(NC(=O)c2csc3c(Nc4ccccn4)ncnc23)c1F [Example 62, 4-(Pyridin-2-ylamino)-thieno[3,2-d] pyrimidine-7-carboxylic acid [2,6-difluoro-3-(propane-1-sulfonylamino)-phenyl]-amide]
5 | > 7.00 | > 6.00 | 9.22 | CC(C)CS(=O)(=O)Nc1ccc(F)c(NC(=O)c2csc3c(N)ncnc23)c1Cl [Example 8, 4-Amino-thieno[3,2-d]pyrimidine-7-carboxylic acid[2-chloro-6-fluoro-3-(2-methyl-propane-1-sulfonylamino)-phenyl]-amide]
6 | > 7.00 | > 6.00 | 9.05 | Nc1ncnc2c(C(=O)Nc3c(F)ccc(NS(=O)(=O)c4ccccc4)c3F)csc12 [Example 11, 4-Amino-thieno[3,2-d]pyrimidine-7-carboxylic acid (3-benzenesulfonylamino-2,6-difluoro-phenyl)-amide]
7 | – | > 6.00 | 6.38 | CCCS(=O)(=O)Nc1ccc(Cl)c(NC(=O)c2csc3c(NC4CCC(F)(F)CC4)ncnc23)c1Cl [Example 80, 4-(4,4-Difluoro-cyclohexyl-amino)-thieno[3,2-d] pyrimidine-7-carboxylic acid [2,6-dichloro-3-(propane-1-sulfonyl-amino)-phenyl]-amide]
8 | > 7.00 | > 6.00 | 7.39 | O=C(Nc1c(F)ccc(NS(=O)(=O)CCCF)c1F)c1csc2cncnc12 [Example 109, Thieno[3,2-d]pyrimidine-7-carboxylic acid [2,6-difluoro-3-(3-fluoro-propane-1-sulfonyl-amino)-phenyl]-amide]
9 | > 7.00 | > 6.00 | 8.74 | CCCS(=O)(=O)Nc1ccc(Cl)c(NC(=O)c2csc3c(NC4COC4)ncnc23)c1Cl [Example 68, 4-(Oxetan-3-ylamino)-thieno[3,2-d] pyrimidine-7-carboxylic acid [2,6-dichloro-3-(propane-1-sulfonyl-amino)-phenyl]-amide]
10 | > 7.00 | > 6.00 | 9.10 | CCCS(=O)(=O)Nc1cc(F)c(F)c(NC(=O)c2csc3c(N)ncnc23)c1F [Example 23, 4-Amino-thieno[3,2-d] pyrimidine-7-carboxylic acid [2,3,6-trifluoro-5-(pro-pane-1-sulfonyl-amino)-phenyl]-amide]
11 | > 7.00 | > 6.00 | 9.74 | Nc1ncnc2c(C(=O)Nc3c(Cl)ccc(NS(=O)(=O)CCCF)c3F)nsc12 [Example 32, 7-Amino-isothiazolo[4,5-d]pyrimidine-3-carboxylic acid [6-chloro-2-fluoro-3-(3-fluoro-propane-1-sulfonylamino)-phenyl]-amide]
12 | > 7.00 | > 6.00 | 7.85 | CCCS(=O)(=O)Nc1ccc(Cl)c(NC(=O)c2csc3c(NC#N)ncnc23)c1Cl [Example 73, 4-Cyano-amino-thieno[3,2-d] pyrimidine-7-carboxylic acid [2,6-dichloro-3-(propane-1-sulfonyl-amino)-phenyl]amide]
13 | – | > 6.00 | 6.93 | CCCS(=O)(=O)Nc1cc(F)c(F)c(NC(=O)c2csc3c(NC4CC(F)(F)C4)ncnc23)c1F [Example 93, 4-(3,3-Difluoro-cyclobutyl-amino)-thieno[3,2-d] pyrimidine-7-carboxylic acid [2,3,6-trifluoro-5-(propane-1-sulfonyl-amino)-phenyl]-amide]
14 | > 7.00 | > 6.00 | 8.43 | CCCS(=O)(=O)Nc1cc(F)c(F)c(NC(=O)c2csc3c(NCCF)ncnc23)c1F [Example 89, 4-(2-Fluoro-ethylamino)-thieno[3,2-d] pyrimidine-7-carboxylic acid [2,3,6-trifluoro-5-(propane-1-sulfonyl-amino)e-phenyl]-amid]
15 | > 7.00 | > 6.00 | 7.80 | CCCS(=O)(=O)Nc1cc(F)c(F)c(NC(=O)c2csc3c(NCC(F)F)ncnc23)c1F [Example 90, 4-(2,2-Difluoro-ethylamino)-thieno[3,2-d] pyrimidine-7-carboxylic acid [2,3,6-trifluoro-5-(propane-1-sulfonyl-amino)-phenyl]-amide]
16 | > 7.00 | > 6.00 | 8.14 | CCCS(=O)(=O)Nc1cccc(NC(=O)c2csc3c(N)ncnc23)c1Cl [Example 25, 4-Amino-thieno[3,2-d]pyrimidine-7-carboxylic acid[2-chloro-3-(propane-1-sulfonylamino)-phenyl]-amide]
17 | > 7.00 | > 6.00 | 8.29 | CCCS(=O)(=O)Nc1cc(F)c(F)c(NC(=O)c2csc3c(NCC)ncnc23)c1F [Example 85, 4-Ethylamino-thieno[3,2-d] pyrimidine-7-carboxylic acid [2,3,6-trifluoro-5-(propane-1-sulfonyl-amino)-phenyl]-amide]
18 | > 7.00 | > 6.00 | 10.00 | CCCS(=O)(=O)Nc1ccc(Cl)c(NC(=O)c2csc3c(N)ncnc23)c1Cl [Example 9, 4-Amino-thieno[3,2-d]pyrimidine-7-carboxylic acid[2,6-dichloro-3-(propane-1-sulfonylamino)-phenyl]-amide]
19 | > 7.00 | > 6.00 | 8.41 | CCS(=O)(=O)Nc1ccc(Cl)c(NC(=O)c2csc3c(N)ncnc23)c1F [Example 3, 4-Amino-thieno[3,2-d] pyrimidine-7-carboxylic acid (6-chloro-3-ethane-sulfonylamino-2-fluoro-phenyl)-amide]
20 | > 7.00 | > 6.00 | 8.66 | CCCS(=O)(=O)Nc1ccc(Cl)c(NC(=O)c2csc3c(NCC(F)F)ncnc23)c1Cl [Example 69, 4-(2,2-Difluoro-ethylamino)-thieno[3,2-d] pyrimidine-7-carboxylic acid [2,6-dichloro-3-(propane-1-sulfonyl-amino)-phenyl]-amide]
21 | > 7.00 | > 6.00 | 7.53 | CCCS(=O)(=O)Nc1ccc(F)c(NC(=O)c2scc3c(N)ncnc23)c1F [Example 100, 4-Amino-N-(2,6-difluoro-3-(propylsulfonamido)phenyl)thieno[3,4-d]pyrimidine-7-carboxamide]
22 | – | > 6.00 | 6.71 | CCCS(=O)(=O)Nc1ccc(F)c(NC(=O)c2snc3c(NC4CC4)ncnc23)c1F [Example 36, 7-(Cyclopropylamino)-N-(2,6-difluoro-3-(propylsulfonamido)phenyl)isothiazolo[4,3-d]pyrimidine-3-carboxamide]
23 | > 7.00 | > 6.00 | 7.32 | CCCS(=O)(=O)Nc1ccc(F)c(NC(=O)c2c[nH]c3c(NC4CC4)ncnc23)c1F [Example 104, 4-Cyclopropylamino-5H-pyrrolo[3,2-d]pyrimidine-7-carboxylic acid [2,6-difluoro-3-(propane-1-sulfonylamino)-phenyl]-amide]
24 | > 7.00 | > 6.00 | 8.67 | CCNc1ncnc2c(C(=O)Nc3c(F)c(F)cc(NS(=O)(=O)CCCF)c3F)csc12 [Example 98, 4-Ethylamino-thieno[3,2-d] pyrimidine-7-carboxylic acid [2,3,6-trifluoro-5-(3-fluoro-propane-1-sulfonyl-amino)-phenyl]-amide]
25 | > 7.00 | > 6.00 | 7.82 | CCCS(=O)(=O)Nc1cc(F)c(F)c(NC(=O)c2csc3c(NC4COC4)ncnc23)c1F [Example 87, 4-(Oxetan-3-ylamino)-thieno[3,2-d] pyrimidine-7-carboxylic acid [2,3,6-trifluoro-5-(propane-1-sulfonyl-amino)-phenyl]amid]
26 | > 7.00 | > 6.00 | 7.80 | CCCS(=O)(=O)Nc1ccc(F)c(NC(=O)c2csc3c(NCCF)ncnc23)c1F [Example 52, 4-(2-Fluoro-ethylamino)-thieno[3,2-d] pyrimidine-7-carboxylic acid [2,6-difluoro-3-(propane-1-sulfonylamino)-phenyl]-amide]
27 | > 7.00 | > 6.00 | 8.60 | CCCS(=O)(=O)Nc1ccc(F)c(NC(=O)c2ccc3c(N)ncnn23)c1F [Example 101, 4-Amino-pyrrolo[2,1-f][1,2,4]triazine-7-carboxylic acid [2,6-difluoro-3-(propane-1-sulfonylamino)-phenyl]-amide]

From patent publication US20120157439A1, “RAF INHIBITOR COMPOUNDS AND METHODS OF USE THEREOF” (GENENTECH, INC., priority 2009, published 2012)
